Source: patent US20260191924A1, “METHODS AND COMPOSITIONS FOR TREATING VIRAL INFECTIONS” (DST Pharma, Inc., priority 2020, published 2026)

What was measured:
FCV F9 [1] = assay: Effect of quercetin on FCV F9 infection of CRFK cells; format: cell-based, feline calicivirus (cat kidney CRFK cells); settings: 0.1% quercetin, added 1 hour before, with, or 1 hour after virus (FIG. 4)
Method: 50 μl of the virus was added to 450 μl HBSS making a 10^−1 viral titer mix. A series of dilutions made from this mix up to 10^−8. Virus was added to all wells by loading 250 μl from each dilution to the designated wells, same as for viral titer. 3 well repeats were prepared. Quercetin was prepared at 10% quercetin in DMSO.
For experiments in which quercetin was added before viral infection, the quercetin was diluted to 0.1% using MM (1:100), added to cells, and incubated for 1 hour.
For experiments in which quercetin was added at the same time as viral infection, the virus was diluted in 0.1% quercetin MM/DMSO, added to wells, incubated for 1 hour, and then MM was added.
For experiments in which quercetin was added after viral infection, viral dilutions were added to the cells, incubated for 1 hour, then 0.1% quercetin in MM/DMSO was added. The medium was changed to MM after 60 minutes.

FCV F9 [2] = assay: Effect of 5,7,3′,4′-tetrarydroxyflavon-3-ol C4-C8 dimers on FCV F9 infection of CRFK cells; format: cell-based, feline calicivirus (cat kidney CRFK cells); settings: 0.1% dimers, added before, with or after virus (FIG. 6)
Method: 50 μl of virus was added to 450 μl complete EMEM to create a 10^−1 viral mix. A series of dilutions made from this mix up to 10^−8. Virus was added to all wells by loading 250 μl from each dilution to the designated wells. 3 well repeats were prepared. Purified 5, 7, 3′, 4′-tetrarydroxyflavon-3-ol C4-C8 dimers was diluted to 0.1% in complete EMEM.
For experiments in which 5, 7, 3′, 4′-tetrarydroxyflavon-3-ol C4-C8 dimers was added before the virus, 5, 7, 3′, 4′-tetrarydroxyflavon-3-ol C4-C8 dimers was diluted to 0.1% using MM (1:100), added to cells and incubated for 1 hour before the virus was added to the cells.
For experiments in which 5, 7, 3′, 4′-tetrarydroxyflavon-3-ol C4-C8 dimers was added simultaneously with the virus, the virus was diluted in 0.1% purified complete EMEM, added to wells, incubated for 1 hour, then complete EMEM was added to the wells.
For experiments in which 5, 7, 3′, 4′-tetrarydroxyflavon-3-ol C4-C8 dimers was added after viral infection, viral dilutions were added to wells, incubated for 1 hour, 0.1% complete EMEM was added to the wells. The medium was changed to complete EMEM after 60 minutes.

Compound	inhibition of FCV F9 infection of CRFK cells (FCV F9 [1])	effect against FCV infection (FCV F9 [2])
O=c1c(O)c(-c2ccc(O)c(O)c2)oc2cc(O)cc(O)c12 [quercetin, 3, 3′, 4′, 5,7-pentahydroxyfivanone]	significantly inhibited	
Oc1cc(O)c2c(c1)OC(c1ccc(O)c(O)c1)C(O)C2c1c(O)cc(O)c2c1OC(c1ccc(O)c(O)c1)C(O)C2 (centres unmarked) [5,7, 3′, 4′-tetrahydroxyflavan-3-ol C4-C8 dimers]		effective against FCV infection comparable to quercetin and better than rutin
